GI50 and TGI data for 8 compounds are collected here from PubChem BioAssay (NCI).

Each structure is given as a SMILES string.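 Interpolation was linear, between the two tested concentrations surrounding the appropriate level; five concentrations were tested over 48 hours in 96-well plates. At the GI50, growth is halved. TGI: concentration producing complete growth inhibition.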

Among the test systems are OVCAR-4 ovarian; SF-268 CNS; SW-620 colon; K-562 leukemia; MDA-MB-231 breast; A498 renal; RPMI-8226 leukemia; SK-MEL-5 melanoma.
Common to all, as to assay: NCI-60 cell line screen, 48 h

With `CC(C)(C#N)c1cc(F)cc(C(=O)Nc2cc(Nc3ncccc3-c3ncnc4nc[nH]c34)ccc2F)c1`, the GI50 with OVCAR-4 ovarian was 4710 nM; in the assay on SF-268 CNS, 3780 nM; with SW-620 colon it was 1130 nM; in the assay on K-562 leukemia, 606 nM; in the assay with MDA-MB-231 breast it was 306 nM; in the assay on A498 renal it was 200 nM. Further, the GI50 with RPMI-8226 leukemia was 1920 nM; with SK-MEL-5 melanoma it was 635 nM. Also, the TGI in the assay with OVCAR-4 ovarian was greater than 10 µM; in the assay with SF-268 CNS, greater than 10 µM; with SW-620 colon it was greater than 10 µM; with K-562 leukemia, greater than 10 µM; in the assay on MDA-MB-231 breast, 4.8 µM; in the assay with A498 renal it was 1.09 µM. In addition, the TGI in the assay with RPMI-8226 leukemia and in the assay on SK-MEL-5 melanoma was greater than 10 µM throughout.

For `O=S(=O)(O)c1ccc(-c2nnc(-c3ccccn3)nc2-c2ccc(S(=O)(=O)O)o2)o1`, the TGI with OVCAR-4 ovarian, in the assay with SF-268 CNS, in the assay with SW-620 colon, in the assay with K-562 leukemia, in the assay with MDA-MB-231 breast and with A498 renal was greater than 100 µM in each case. The TGI with RPMI-8226 leukemia and in the assay with SK-MEL-5 melanoma was greater than 100 µM in each case.

Turning to `O=C(Nc1ccc(Cl)cc1F)c1cc(I)ccc1O`, the GI50 with OVCAR-4 ovarian was 2040 nM; with SF-268 CNS, 1670 nM; in the assay with SW-620 colon, 2440 nM; with K-562 leukemia it was 1090 nM; with MDA-MB-231 breast it was 1670 nM; in the assay with A498 renal, 269 nM. For the same compound, the GI50 with RPMI-8226 leukemia is 737 nM; in the assay on SK-MEL-5 melanoma it was 1120 nM. The TGI is 15.5 µM in the assay with OVCAR-4 ovarian; 15.1 µM in the assay with SF-268 CNS; 13.6 µM in the assay on SW-620 colon; greater than 100 µM with K-562 leukemia; 7.49 µM with MDA-MB-231 breast; 0.846 µM in the assay with A498 renal. Further, the TGI in the assay with RPMI-8226 leukemia was found to be 5.01 µM; with SK-MEL-5 melanoma, 2.53 µM.

Turning to `O=C(CN1CCN(c2ccc(Cl)cc2)CC1)N1CCN(c2nnc(-c3ccc(Cl)cc3)c(-c3ccc(Cl)cc3)n2)CC1`, the GI50 is greater than 100000 nM with OVCAR-4 ovarian; 34000 nM with SF-268 CNS; greater than 100000 nM with SW-620 colon; greater than 100000 nM with K-562 leukemia; 50800 nM in the assay on MDA-MB-231 breast; 43100 nM in the assay on A498 renal. Also, the GI50 is greater than 100000 nM in the assay on RPMI-8226 leukemia and 14600 nM in the assay with SK-MEL-5 melanoma. Besides, the TGI with OVCAR-4 ovarian, in the assay on SF-268 CNS, in the assay on SW-620 colon, in the assay on K-562 leukemia, with MDA-MB-231 breast and in the assay with A498 renal was greater than 100 µM each time. Moreover, the TGI in the assay with RPMI-8226 leukemia and with SK-MEL-5 melanoma was greater than 100 µM in each case.

Consider `O=C(c1ccco1)c1nc2cc(F)ccc2[n+]([O-])c1C(F)(F)F`, for which the GI50 in the assay on OVCAR-4 ovarian is 21500 nM; with SF-268 CNS, 39200 nM; with SW-620 colon, greater than 100000 nM; with K-562 leukemia it was 9590 nM; with MDA-MB-231 breast, 22600 nM; in the assay with A498 renal it was 86600 nM. Further, the values for the GI50 with RPMI-8226 leukemia and in the assay with SK-MEL-5 melanoma were 35800 nM and greater than 100000 nM, respectively. Further, the TGI in the assay with OVCAR-4 ovarian is 50.5 µM; in the assay with SF-268 CNS, greater than 100 µM; with SW-620 colon it was greater than 100 µM; with K-562 leukemia, 47.9 µM; in the assay with MDA-MB-231 breast, 60.5 µM; in the assay with A498 renal, greater than 100 µM. The TGI in the assay on RPMI-8226 leukemia and in the assay on SK-MEL-5 melanoma was greater than 100 µM throughout.

Take `C/C(=N\N=C(\[Se])N1CCN(c2ccccn2)CC1)c1ccccn1`: the GI50 with OVCAR-4 ovarian is 5.54 nM; in the assay on K-562 leukemia, 1.14 nM; with RPMI-8226 leukemia, 4.77 nM; in the assay with SK-MEL-5 melanoma it was 40.1 nM. Besides, the TGI in the assay on OVCAR-4 ovarian came out at 3.31 µM; in the assay on SF-268 CNS it was 19.5 µM; in the assay on SW-620 colon, 12.4 µM; in the assay on MDA-MB-231 breast, 17.5 µM; in the assay with A498 renal it was 18.1 µM; in the assay on RPMI-8226 leukemia, 0.486 µM. In addition, the TGI with SK-MEL-5 melanoma stood at 3.95 µM.

Turning to `O=C(Nc1ccc(Oc2ccc3nc(NC(=O)c4ccccc4)[nH]c3c2)cc1)Nc1cc(C(F)(F)F)ccc1F`, the GI50 is 678 nM with OVCAR-4 ovarian; 2030 nM in the assay with SF-268 CNS; 1270 nM in the assay with SW-620 colon; 262 nM in the assay on K-562 leukemia; 2050 nM in the assay on MDA-MB-231 breast; 2570 nM in the assay with A498 renal. In addition, the values for the GI50 with RPMI-8226 leukemia and with SK-MEL-5 melanoma were 792 nM and 543 nM, respectively. Further, the TGI in the assay with OVCAR-4 ovarian was 2.71 µM; with SF-268 CNS, 24.4 µM; with SW-620 colon, greater than 25 µM; in the assay on K-562 leukemia, greater than 7.59 µM; in the assay on MDA-MB-231 breast, greater than 22.9 µM; with A498 renal, greater than 25 µM. For the same compound, the values for the TGI in the assay with RPMI-8226 leukemia and in the assay with SK-MEL-5 melanoma were 3.86 µM and 1.83 µM, respectively.

For the compound `CN(C)c1ncnc2c1nnn2C1OC(CO)C(O)C1O` (stereo not given), the GI50 is 55.8 nM in the assay on OVCAR-4 ovarian; 479 nM with SF-268 CNS; 293 nM in the assay on SW-620 colon; 97.3 nM in the assay on K-562 leukemia; 524 nM with MDA-MB-231 breast; 442 nM in the assay with A498 renal. Also, the GI50 in the assay on RPMI-8226 leukemia is 160 nM; with SK-MEL-5 melanoma it was 737 nM. Also, the TGI with OVCAR-4 ovarian, in the assay with SF-268 CNS, with SW-620 colon, in the assay on K-562 leukemia, in the assay on MDA-MB-231 breast and in the assay with A498 renal was greater than 100 µM each time. The TGI amounted to 1.1 µM in the assay with RPMI-8226 leukemia and 5.7 µM in the assay on SK-MEL-5 melanoma.
